From ChEMBL document CHEMBL4007403, “Identification of Triazolothiadiazoles as Potent Inhibitors of the dCTP Pyrophosphatase 1” (J Med Chem, 2017)

How the values were obtained:
dCTP pyrophosphatase 1 = biological target: T1, dCTP pyrophosphatase 1 (Homo sapiens, UniProt Q9H773); test: Inhibition of recombinant human N-terminal His-tagged dCTPase 1 expressed in Escherichia coli BL21(DE3)pLysS using dCTP as substrate after 1 hr by malachite green reagent based assay
T1 sequence (Q9H773 whole entry): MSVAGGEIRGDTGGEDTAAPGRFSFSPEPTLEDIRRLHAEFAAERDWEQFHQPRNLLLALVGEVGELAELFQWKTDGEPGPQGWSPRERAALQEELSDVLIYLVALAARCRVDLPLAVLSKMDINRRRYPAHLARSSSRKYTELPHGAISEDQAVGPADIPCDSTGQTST

[1] = Stability of the compound in biochemical assay buffer under mildly acidic mobile phase conditions by HPLC-MS analysis; format: physicochemical
[2] = Stability of the compound in DMSO measured after several months by HPLC-MS analysis; format: physicochemical
[3] = Stability of the compound in biochemical assay buffer under basic mobile phase conditions by HPLC-MS analysis; format: physicochemical

Row | SMILES | IC50 (dCTP pyrophosphatase 1) [µM] | Stability [1] | Stability [2] | Stability [3]
1 | Fc1ccccc1-c1nn2c(-c3ccccn3)nnc2s1 | 0.67 | Stable | Stable | Stable
2 | COc1cccc(-c2nn3c(-c4ccccn4)nnc3s2)c1 | 1.88 | Stable | Stable | Stable
3 | Clc1ccc(/C=C/Cc2nn3c(-c4ccccn4)nnc3s2)cc1 | 0.22 | Stable | Stable | Stable
4 | C=CCOc1ccc(-c2nn3c(-c4ccccn4)nnc3s2)cc1 | 1.21 | Stable | Stable | Stable
5 | CN(C)c1cccc(-c2nn3c(-c4ccccn4)nnc3s2)c1 | 0.277 | Stable | Stable | Stable
6 | CCCc1nnc2sc(-c3ccc(OC)cc3)nn12 | 6.97 | Stable | Stable | Stable
7 | Cc1ccccc1-c1nn2c(-c3ccccn3)nnc2s1 | 0.505 to 0.746 | Stable | Stable | Stable
8 | CCOc1ccc(-c2nn3c(-c4ccccn4)nnc3s2)cc1 | 0.449 | Stable | Stable | Stable
9 | c1ccc(-c2nnc3sc(-c4cc5ccccc5o4)nn23)nc1 | 0.401 | Stable | Stable | Stable
10 | Cc1ccc(-c2nn3c(-c4ccccn4)nnc3s2)cc1C | 0.227 | Stable | Stable | Stable
11 | Clc1ccccc1-c1nn2c(-c3ccccn3)nnc2s1 | 0.44 | Stable | Stable | Stable
12 | COc1ccc(-c2nn3c(-c4ccccc4F)nnc3s2)cc1 | 0.208 | Stable | Stable | Stable
13 | Brc1ccc(-c2nn3c(-c4ccccn4)nnc3s2)cc1 | 0.164 | Stable | Stable | Stable
14 | Fc1ccccc1-c1nnc2sc(-c3ccccc3)nn12 | 0.41 | Stable | Stable | Stable
15 | c1ccc(CCCCc2nn3c(-c4ccccn4)nnc3s2)cc1 | 1.37 | Stable | Stable | Stable
16 | Cc1ccccc1-c1nn2c(-c3cnccn3)nnc2s1 | 0.691 | Stable | Stable | Stable
17 | Cc1cccc(-c2nn3c(-c4ccccn4)nnc3s2)c1 | 0.449 | Stable | Stable | Stable
18 | Cc1ccc(-c2nn3c(-c4ccccn4)nnc3s2)cc1 | 0.469 | Stable | Stable | Stable
19 | CCc1noc(C)c1-c1nn2c(-c3cccs3)nnc2s1 | 0.346 | Stable | Stable | Stable
20 | COc1cccc(-c2nn3c(-c4ccncc4)nnc3s2)c1 | > 10 | Stable | Stable | Stable
21 | c1ccc(-c2nn3c(-c4ccco4)nnc3s2)cc1 | 0.592 | Stable | Stable | Stable

Row | SMILES | IC50 (dCTP pyrophosphatase 1) [µM] | Stability [1] | Stability [2] | Stability [3]
22 | Cc1onc(-c2cccs2)c1-c1nn2c(-c3ccco3)nnc2s1 | 1.03 | Stable | Stable | Stable
23 | c1coc(-c2nnc3sc(-c4csc5c4CCCC5)nn23)c1 | 0.144 | Stable | Stable | Stable
24 | CCCc1nnc2sc(-c3cccc(OC)c3)nn12 | 7.46 | Stable | Stable | Stable
25 | c1ccc(-c2nnc3sc(-c4ccc5ccccc5c4)nn23)nc1 | 0.095 | Stable | Stable | Stable
26 | Clc1ccc(-c2nn3c(-c4ccccn4)nnc3s2)cc1 | 0.204 | Stable | Stable | Stable
27 | c1coc(-c2nnc3sc(-c4cccs4)nn23)c1 | 0.704 | Stable | Stable | Stable
28 | COc1ccccc1-c1nn2c(-c3ccccn3)nnc2s1 | 1.03 | Stable | Stable | Stable
29 | CCCCc1nnc2sc(-c3cccc(OC)c3)nn12 | 2.06 | Stable | Stable | Stable
30 | CCCCc1nnc2sc(-c3cc(C)nc4ccccc34)nn12 | 5.61 | Stable | Stable | Stable
31 | CN(C)c1ccc(-c2nn3c(-c4ccccn4)nnc3s2)cc1 | 0.291 | Stable | Stable | Stable
32 | COc1cc(OC)cc(-c2nn3c(-c4ccccn4)nnc3s2)c1 | 0.276 | Stable | Stable | Stable
33 | c1ccc(-c2nn3c(-c4ccccn4)nnc3s2)cc1 | 0.619 | Stable | Stable | Stable
34 | COc1ccc(-c2nn3c(-c4cccnc4)nnc3s2)cc1 | 2.61 | Stable | Stable | Stable
35 | Fc1ccc(-c2nn3c(-c4ccccn4)nnc3s2)cc1 | 0.332 | Stable | Stable | Stable
36 | c1ccc(-c2nnc3sc(-c4cccc5ccccc45)nn23)nc1 | 0.204 | Stable | Stable | Stable
37 | COc1ccc(-c2nn3c(-c4ccccn4)nnc3s2)cc1 | 0.282 to 0.316 | Stable | Stable | Stable
38 | CCc1cc(-c2nnc3sc(-c4ccccc4)nn23)n(C)n1 | > 10 | Stable | Stable | Stable
39 | c1ccc(-c2nnc3sc(-c4cccnc4)nn23)nc1 | 0.233 | Stable | Stable | Stable
40 | Fc1cccc(-c2nn3c(-c4ccccn4)nnc3s2)c1 | 0.357 | Stable | Stable | Stable
41 | Clc1cccc(-c2nn3c(-c4ccccn4)nnc3s2)c1 | 0.271 | Stable | Stable | Stable
42 | C(=C\c1cccnc1)/Cc1nn2c(-c3ccco3)nnc2s1 | 0.453 | Stable | Stable | Stable
